Laboratory results from US20260132165A1, “MODIFIED NUCLEOSIDE ANALOGUE AND USE THEREOF, AND NUCLEOSIDE ANALOGUE-CONTAINING DOUBLE-STRANDED OLIGONUCLEOTIDE AND USE THEREOF” (RIGERNA THERAPEUTICS (BEIJING) CO., LTD., priority 2023, published 2026).

Columns and labels:
[1] = test system: target gene SOD1; assay: Test Example 7: inhibitory activity of lipid conjugated siRNA sequences on SOD1 in mouse adipose and muscle tissues (tail vein injection); assay type: in vivo, C57BL/6j mice; details: tail vein injection 5 mg/kg
Procedure: (§1) RNA extraction: the above tissue samples were taken out from the RNAlater, and smashed for 60 s in Tissuelyser type II full-automatic tissue homogenizer, and total RNAs of various tissue samples were extracted using the full-automatic nucleic acid extraction instrument and the nucleic acid extraction kit from Zhejiang Hanwei Science and Technology Co. Ltd. according to methods described in instructions.
(§2) Reverse transcription reaction: 1 μg of the extracted total RNAs of the tissue samples were taken, and configured into 20 μL of reverse transcription system according to a method described in kit instructions by using a reverse transcription kit (Reverse Transcription System, A3500) from Promega Corporation and selecting Oligo (dT)15 reverse transcription primers, and the reverse transcription reaction was completed. After the reaction was ended, 80 μL of RNase-Free water was added into the reverse transcription system to provide cDNA solution for Real-time PCR detection.
(§3) Real-time PCR detection: 20 μL of Real-time PCR reaction system per PCR detection well was configured according to a method described in kit instructions using SYBR™ Select Master Mix (Catalog number: 4472908) reagent from ABI company. Each detection system contained 5 μL of cDNA template obtained from the above reverse transcription reaction, 10 μL of SYBR™ Select Master Mix, 0.5 μL of 10 μM upstream primers, 0.5 μL of 10 μM downstream primers, and 4 μL of RNase-Free H2O. The configured reaction system was subjected to Real-time PCR amplification on ABI StepOnePlus PCR instrument by a three-step method, wherein an amplification procedure was pre-denaturation at 95° C. for 10 min, then denaturation at 95° C. for 30 s, annealing at 60° C. for 30 s, and extension at 72° C. for 30 s; and processes of denaturation, annealing, and extension were repeated for 40 cycles. Gene expression differences were calculated by the ΔΔCt method after completion of the procedure.
(§4) In the real-time fluorescence quantitative PCR method, relative quantitative calculation of remaining expression level and inhibition rate of gene mRNA of interest in various test groups was performed by the ΔΔCt method, and the calculation method is as follows:
The present test example evaluated, by an evaluation method for inhibitory activity on a target gene in mice, the inhibitory activity of siRNA sequence RZ899090 with the sense strand with the NM073 conjugation at Position 4, siRNA sequence RZ899091 with the sense strand with the NM074 conjugation at Position 4, siRNA sequence RZ899078 with the sense strand with the NM202 conjugation at Position 6 and siRNA reference sequence RZ899093 with the sense strand with the Uhd conjugation at Position 4, and siRNA reference sequence RZ899076 with the sense strand with the NM200 conjugation at Position 4 on the target gene SOD1 of interest in mice. The above conjugation vectors were different in that NM073 was C18 aliphatic chain, NM074 was C20 aliphatic chain, and NM0202 and NM0200 were C22 aliphatic chains.
(§5) 6-8 Week-old C57BL/6j mice were randomly grouped by body weight, 15 per group, 6 groups in total. Mice in each group were dosed with the above siRNA conjugates by tail vein injection, with an administration dose of 5 mg/kg per mouse, and an administration volume of 150 μL. PBS control group was administered with the same volume of siRNA conjugate-free PBS solution. The day of administration was recorded as D0, and 5 mice in each group were sacrificed on D14, D28 and D49 after administration. Tissues such as paragonadal fat, left hind leg quadriceps muscle, heart, liver, and kidney were respectively taken and stored in the RNAlater. RNA extraction, reverse transcription, and real-time fluorescence quantitative detection were performed on various tissues according to the above method, and gene expression differences were calculated by the above ΔΔCt method.

[2] = test system: target gene SOD1; assay: Test Example 9: inhibitory activity of lipid conjugated siRNA sequences on SOD1 in mouse muscle tissues; assay type: in vivo, C57BL/6j mice; details: tail vein injection 5 mg/kg, D14
Procedure: as §1, §2, §3, §4
The present test example evaluated, by an evaluation method for inhibitory activity on a target gene in mice, the inhibitory activity of siRNA sequence RZ899090 with the sense strand with the NM073 conjugation at Position 4, siRNA sequence RZ899091 with the sense strand with the NM074 conjugation at Position 4, siRNA sequence RZ899078 with the sense strand with the NM202 conjugation at Position 6 and siRNA reference sequence RZ899093 with the sense strand with the Uhd conjugation at Position 4, siRNA reference sequence RZ899076 with the sense strand with the NM200 conjugation at Position 4 on the target gene SOD1 of interest in muscle tissues in different parts of mice.
as §5, with “weight, 5” for “weight, 15”, “on D14” for “on D14, D28 and D49”, “as” for “as paragonadal fat,”, “muscle, diaphragm,” for “muscle, heart, liver,”, “and heart tissues” for “and kidney”

Substance: RZ899076: siRNA reference sequence with the sense strand with the NM200 (C22) conjugation at Position 4; SEQ ID NO: 18 / 24 (sense UUUNAAUCCUCACUCUAAA; antisense UUUAGAGUGAGGAUUAAAAUG; NM200 (C22) conjugate at sense position 4; modified_base 1..2 OTHER; 2'-methoxy and 5'-thiophosphate modified nucleotides; modified_base 3 OTHER; 2'-methoxy modified nucleotide; modified_base 4 OTHER; n is the synthetic nucleotide analog NM200 as described in the disclosure.; modified_base 5..6 OTHER; 2'-methoxy modified nucleotides; modified_base 7..10 OTHER; 2'-fluoro modified nucleotides; modified_base 11..19 OTHER; 2'-methoxy modified ; modified_base 1 OTHER; 2'-methoxy and 5'-thiovinylphosphonate modified nucleotide; modified_base 2 OTHER; 2'-fluoro and 5'-thiophosphate modified …) [reference compound]
- D 14 % Mean value of inhibition rate ([1]; mouse adipose tissues (paragonadal fat), D14): 92.23%
- D 28 % Mean value of inhibition rate ([1]; mouse adipose tissues (paragonadal fat), D28): 86.10%
- D 49 % Mean value of inhibition rate ([1]; mouse adipose tissues (paragonadal fat), D49): 73.36%
- D 14 % Mean value of inhibition rate ([1]; mouse heart tissues, D14): 70.04%
- D 28 % Mean value of inhibition rate ([1]; mouse heart tissues, D28): 70.45%
- D 49 % Mean value of inhibition rate ([1]; mouse heart tissues, D49): 37.03%
- Kidney D 14 % Mean value of inhibition rate ([1]; mouse kidney, D14): 9.13%
- Kidney D 28 % Mean value of inhibition rate ([1]; mouse kidney, D28): 9.82%
- Kidney D 49 % Mean value of inhibition rate ([1]; mouse kidney, D49): 7.06%
- Liver D 14 % Mean value of inhibition rate ([1]; mouse liver, D14): 51.15%
- Liver D 28 % Mean value of inhibition rate ([1]; mouse liver, D28): 15.46%
- Liver D 49 % Mean value of inhibition rate ([1]; mouse liver, D49): −13.46%
- D 14 % Mean value of inhibition rate ([1]; mouse skeletal muscle tissues (left hind leg quadriceps muscle), D14): 82.53%
- D 28 % Mean value of inhibition rate ([1]; mouse skeletal muscle tissues (left hind leg quadriceps muscle), D28): 81.97%
- D 49 % Mean value of inhibition rate ([1]; mouse skeletal muscle tissues (left hind leg quadriceps muscle), D49): 66.88%
- Diaphragm % Mean value of inhibition rate ([2]; diaphragm): 74.58%
- Heart % Mean value of inhibition rate ([2]; heart): 51.69%
- Left quadriceps muscle % Mean value of inhibition rate ([2]; left hind leg quadriceps muscle): 60.97%
